Assay results published in US11535643B2, “Macrolides with modified desosamine sugars and uses thereof” (President and Fellows of Harvard College, priority 2015, dated 2022).
≈ marks a conversion by molar mass, not a printed value. Where two headings read alike, the source gives them in different places.

How the values were obtained:
Type in all cases: cell-based
S. pneumoniae = assay: Broth dilution MIC determination (CLSI) against S. pneumoniae strains; conditions: Streptococcus pneumoniae
Procedure, shortened: (§1)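 MICs were determined by CLSI standard broth dilution against several strains per species, including multidrug-resistant and macrolide-resistant strains. Azithromycin and solithromycin served as control compounds.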

K. pneumoniae = assay: Broth dilution MIC determination (CLSI) against K. pneumoniae strains; conditions: Klebsiella pneumoniae
Procedure, shortened: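 Azithromycin and solithromycin served as controls; MICs were obtained by standard CLSI broth dilution on a strain panel including multidrug-resistant and macrolide-resistant isolates.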

H. influenzae = assay: Broth dilution MIC determination (CLSI) against H. influenzae strains; conditions: Haemophilus influenzae
Source text: Minimum inhibitory concentrations (MICs) for macrolides described herein have been determined for unique strains of S. aureus, S. pneumoniae, S. pyogenes, E. faecalis, E. coli, A. baumannii, K. pneumoniae, P. aeruginosa, and H. influenzae, including several multidrug-resistant strains, with a special focus on macrolide resistant mechanisms. Azithromycin and solithromycin were included as control compounds. CLSI standard procedures for broth dilution MIC determination were used. Data for exemplary compounds described herein is shown in Tables M1-M7 and in Tables N1-N4.

S. pyogenes = assay: Broth dilution MIC determination (CLSI) against S. pyogenes strains; conditions: Streptococcus pyogenes
Procedure, shortened: as §1

P. aeruginosa = assay: Broth dilution MIC determination (CLSI) against P. aeruginosa strains; conditions: Pseudomonas aeruginosa
Procedure, shortened: as §1

E. faecalis = assay: Broth dilution MIC determination (CLSI) against E. faecalis strains; conditions: Enterococcus faecalis
Procedure, shortened: as §1

S. aureus = assay: Broth dilution MIC determination (CLSI) against S. aureus strains; conditions: Staphylococcus aureus
Procedure, shortened: as §1

E. coli = assay: Broth dilution MIC determination (CLSI) against E. coli strains; conditions: Escherichia coli
Procedure, shortened: as §1

A. baumannii = assay: Broth dilution MIC determination (CLSI) against A. baumannii strains; conditions: Acinetobacter baumannii
Procedure, shortened: as §1

[1] = ATCC49619, ATCC49619, read-out: MIC S. pneumoniae ATCC49619
[2] = erm B + mef A genotype, read-out: MIC S. pneumoniae erm B + mef A genotype
[3] = erm B + tet(M, O) genotype, read-out: MIC S. pneumoniae erm B + tet(M, O) genotype
[4] = read-out: MIC S. pneumoniae mef A genotype, mef A genotype
[5] = read-out: MIC S. pneumoniae mef A genotype, mef A genotype, first of two such columns (c3)
[6] = ATCC10031, ATCC10031, read-out: MIC K. pneumoniae ATCC10031
[7] = KPC-2, read-out: MIC K. pneumoniae KPC-2
[8] = SHV-12, read-out: MIC K. pneumoniae SHV-12
[9] = TEM-10, read-out: MIC K. pneumoniae TEM-10
[10] = ATCC49247, ATCC49247, read-out: MIC H. influenzae ATCC49247
[11] = erythro > 4, azithro 1, read-out: MIC H. influenzae erythro > 4, azithro 1
[12] = ATCC19615, ATCC19615, read-out: MIC S. pyogenes ATCC19615
[13] = macrolide-resistant, read-out: MIC S. pyogenes macrolide-resistant
[14] = ATCC27853, read-out: MIC P. aeruginosa ATCC27853
[15] = read-out: MIC P. aeruginosa HPA101-1477
[16] = ATCC29212, ATCC29212, read-out: MIC E. faecalis ATCC29212
[17] = Vancomycin-resistant, read-out: MIC E. faecalis Vancomycin-resistant
[18] = ATCC29213, ATCC29213, read-out: MIC S. aureus ATCC29213
[19] = MRSA / USA100, MRSA: USA100, read-out: MIC S. aureus MRSA: USA100
[20] = MRSA / USA300, MRSA: USA300, read-out: MIC S. aureus MRSA: USA300
[21] = USA600, USA600, GISA, read-out: MIC S. aureus USA600, GISA
[22] = read-out: MIC S. aureus erm A genotype
[23] = ATCC25922, ATCC25922, read-out: MIC E. coli ATCC25922
[24] = read-out: MIC E. coli CTX-M-14, CTX-M-14
[25] = read-out: MIC E. coli NDM-1, NDM-1
[26] = read-out: MIC E. coli TEM-1, TEM-1
[27] = ATCC19606, ATCC19606, read-out: MIC A. baumannii ATCC19606
[28] = IMP-4, read-out: MIC A. baumannii IMP-4
[29] = chromosomal class C, read-out: MIC A. baumannii chromosomal class C
[30] = imipenem-resistant, read-out: MIC A. baumannii imipenem-resistant

## CC[C@H]1OC(=O)[C@H](C)C(=O)[C@H](C)[C@@H](O[C@@H]2OC(CNC(=O)C(Cl)Cl)CC(N(C)C)C2O)[C@](C)(OC)C[C@@H](C)CN[C@H](C)[C@H]2N(CCCCn3cc(-c4cccc(N)c4)nn3)C(=O)O[C@]12C (stereo partly shown) [FSM-21842]
S. pneumoniae; [1]
  MIC: ≤ 0.0312 µg/mL
S. pneumoniae; [2]
  MIC: 8 µg/mL
S. pneumoniae; [3]
  MIC: ≤ 0.0312 µg/mL
S. pneumoniae; [4]
  MIC: 1 µg/mL (≈ 1.05 µM)
S. pneumoniae; [5]
  MIC: 0.125 µg/mL (≈ 0.131 µM)
K. pneumoniae; [6]
  MIC: 4 µg/mL (≈ 4.19 µM)
K. pneumoniae; [7]
  MIC: > 32 µg/mL
K. pneumoniae; [8]
  MIC: > 32 µg/mL
K. pneumoniae; [9]
  MIC: 32 µg/mL (≈ 33.5 µM)
H. influenzae; [10]
  MIC: 4 µg/mL (≈ 4.19 µM)
H. influenzae; [11]
  MIC: 4 µg/mL (≈ 4.19 µM)
S. pyogenes; [12]
  MIC: ≤ 0.0312 µg/mL
S. pyogenes; [13]
  MIC: 0.5 µg/mL (≈ 0.524 µM)
P. aeruginosa; [14]
  MIC: > 32 µg/mL
P. aeruginosa; [15]
  MIC: > 32 µg/mL
E. faecalis; [16]
  MIC: 1 µg/mL (≈ 1.05 µM)
E. faecalis; [17]
  MIC: > 32 µg/mL
S. aureus; [18]
  MIC: 4 µg/mL (≈ 4.19 µM)
S. aureus; [19]
  MIC: > 32 µg/mL
S. aureus; [20]
  MIC: > 32 µg/mL
S. aureus; [21]
  MIC: > 32 µg/mL
S. aureus; [22]
  MIC: > 32 µg/mL
E. coli; [23]
  MIC: 16 µg/mL (≈ 16.8 µM)
E. coli; [24]
  MIC: > 32 µg/mL
E. coli; [25]
  MIC: 32 µg/mL (≈ 33.5 µM)
E. coli; [26]
  MIC: 16 µg/mL (≈ 16.8 µM)
A. baumannii; [27]
  MIC: 32 µg/mL (≈ 33.5 µM)
A. baumannii; [28]
  MIC: > 32 µg/mL
A. baumannii; [29]
  MIC: > 32 µg/mL
A. baumannii; [30]
  MIC: > 32 µg/mL

## CC[C@H]1OC(=O)[C@@](C)(F)C(=O)[C@H](C)[C@@H](O[C@@H]2O[C@H](C)C[C@H](N(C)C)[C@H]2O)[C@](C)(OC)C[C@@H](C)C(=O)[C@H](C)[C@H]2N(CCCCn3cc(-c4cccc(N)c4)nn3)C(=O)O[C@]12C [Solithromycin, solithromycin, reference compound]
S. pneumoniae; [1]
  MIC: < 0.0312 µg/mL
S. pneumoniae; [2]
  MIC: 0.25 µg/mL
S. pneumoniae; [3]
  MIC: < 0.0312 µg/mL
S. pneumoniae; [4]
  MIC: 0.125 µg/mL (≈ 0.148 µM)
K. pneumoniae; [6]
  MIC: 8 µg/mL (≈ 9.47 µM)
K. pneumoniae; [7]
  MIC: > 32 µg/mL
K. pneumoniae; [8]
  MIC: > 32 µg/mL
K. pneumoniae; [9]
  MIC: > 32 µg/mL
H. influenzae; [10]
  MIC: 4 µg/mL (≈ 4.73 µM)
H. influenzae; [11]
  MIC: 2 µg/mL (≈ 2.37 µM)
S. pyogenes; [12]
  MIC: < 0.0312 µg/mL
S. pyogenes; [13]
  MIC: 0.0625 µg/mL (≈ 0.074 µM)
P. aeruginosa; [14]
  MIC: > 32 µg/mL
P. aeruginosa; [15]
  MIC: > 32 µg/mL
E. faecalis; [16]
  MIC: < 0.0312 µg/mL
E. faecalis; [17]
  MIC: 32 µg/mL (≈ 37.9 µM)
S. aureus; [18]
  MIC: 0.125 µg/mL (≈ 0.148 µM)
S. aureus; [19]
  MIC: > 32 µg/mL
S. aureus; [20]
  MIC: 1 µg/mL (≈ 1.18 µM)
S. aureus; [21]
  MIC: > 32 µg/mL
S. aureus; [22]
  MIC: > 32 µg/mL
E. coli; [23]
  MIC: 32 µg/mL (≈ 37.9 µM)
E. coli; [24]
  MIC: > 32 µg/mL
E. coli; [25]
  MIC: > 32 µg/mL
E. coli; [26]
  MIC: 32 µg/mL (≈ 37.9 µM)
A. baumannii; [27]
  MIC: 8 µg/mL (≈ 9.47 µM)
A. baumannii; [28]
  MIC: > 32 µg/mL
A. baumannii; [29]
  MIC: 8 µg/mL (≈ 9.47 µM)
A. baumannii; [30]
  MIC: 4 µg/mL (≈ 4.73 µM)

## CC[C@H]1OC(=O)[C@H](C)C(=O)[C@H](C)[C@@H](O[C@@H]2OC(CNC(=O)c3ccccc3)CC(N(C)C)C2O)[C@](C)(OC)C[C@@H](C)CN[C@H](C)[C@H]2N(CCCCn3cc(-c4cccc(N)c4)nn3)C(=O)O[C@]12C (stereo partly shown) [FSM-21880]
S. pneumoniae; [1]
  MIC: < 0.0313 µg/mL
S. pneumoniae; [2]
  MIC: 1 µg/mL
S. pneumoniae; [3]
  MIC: < 0.0313 µg/mL
S. pneumoniae; [4]
  MIC: 2 µg/mL (≈ 2.11 µM)
S. pneumoniae; [5]
  MIC: 0.0625 µg/mL (≈ 0.066 µM)
K. pneumoniae; [6]
  MIC: 8 µg/mL (≈ 8.45 µM)
K. pneumoniae; [7]
  MIC: > 32 µg/mL
H. influenzae; [10]
  MIC: 4 µg/mL (≈ 4.22 µM)
H. influenzae; [11]
  MIC: 4 µg/mL (≈ 4.22 µM)
S. pyogenes; [12]
  MIC: < 0.0313 µg/mL
S. pyogenes; [13]
  MIC: 1 µg/mL (≈ 1.06 µM)
P. aeruginosa; [14]
  MIC: > 32 µg/mL
E. faecalis; [16]
  MIC: 4 µg/mL (≈ 4.22 µM)
E. faecalis; [17]
  MIC: > 32 µg/mL
S. aureus; [18]
  MIC: 32 µg/mL (≈ 33.8 µM)
S. aureus; [19]
  MIC: > 32 µg/mL
S. aureus; [20]
  MIC: > 32 µg/mL
S. aureus; [21]
  MIC: > 32 µg/mL
S. aureus; [22]
  MIC: > 32 µg/mL
E. coli; [23]
  MIC: 16 µg/mL (≈ 16.9 µM)
E. coli; [25]
  MIC: 32 µg/mL (≈ 33.8 µM)
A. baumannii; [27]
  MIC: > 32 µg/mL
A. baumannii; [30]
  MIC: 32 µg/mL (≈ 33.8 µM)
